According to PMC11729425 (ACS Pharmacology & Translational Science, 2024):

What was measured:
[1] = system: C2C12 myoblasts carrying the APPswe mutation and human myoblasts from aged donors and patients with IBM; design: method as in PMID 37196064; conditions: cited from earlier work
Aged C57BL/6J mice [2] = experiment: Lean mass (echoMRI) and muscle weight at sacrifice in aged mice; assay type: in vivo, C57BL/6JRj mice; conditions: 1 mg/kg in the food
Experimental: At the first and last (week 20) after experiment onset (as indicated in Figure 2A), body composition analysis was conducted. Each mouse was placed for short in an Echo-MRI (magnetic resonance imaging) machine, specifically the 3-in-1 model from Echo Medical Systems. This procedure recorded lean mass, along with total body weight, with each measurement taking approximately 1 min per individual.
Prior to sacrifice, mice were fasted for 4 h in the morning. Animals were sacrificed between 1:30 and 4 p.m. Mice were anesthetized with isoflurane, followed by a complete blood draw from the vena cava and perfusion with cold phosphate-buffered saline. Immediately thereafter, various tissues including liver, kidney, spleen, heart, brain, gastrocnemius muscle and tibialis anterior muscle were harvested, weighted and promptly flash-frozen in liquid nitrogen.

[3] = design: method as in PMID 29669694; conditions: compared to Myriocin; cited from earlier work
Aged C57BL/6J mice [4] = experiment: Grip strength; assay type: in vivo, C57BL/6JRj mice; conditions: 1 mg/kg in the food, week 8, 4 limbs, normalized to BW
Experimental: Grip strength was evaluated using a grip strength test. Each mouse’s grip strength was measured using a pulldown grid assembly connected to a grip strength meter (Columbus Instruments). The mouse was pulled along a straight line parallel to the grip to determine peak force. The experiment was conducted three times, and the highest recorded value was considered for the analysis.

[5] = system: immortalized mouse C2C12 myoblasts; experiment: Lipid species (ceramides) in C2C12 cells, LC-MS/MS; assay type: cell-based
Experimental: (A) Schematic representation of the de novo sphingolipid synthesis pathway. (B) Chemical structures of myriocin (MYR) and ALT-007. (C) Heatmap analysis comparing the effects of treatments with the indicated concentrations of MYR and ALT-007 on lipid species in C2C12 cells. N = 3 per group. Data are shown as log2 fold change. (D) Body weight curves of mice treated with ALT-007 or vehicle (4 mg/kg/d for 10 days, in the food). (E) Mean food consumption measurement throughout the treatment. (F) Plasma levels of aspartate transaminase (AST), (G) alanine transaminase (ALT) and (H) creatine kinase (CK) after 10 days of treatment with ALT-007 at 4 mg/kg/day. (I) Ceramide levels measured in the gastrocnemius muscle after 10 days of treatment. N = 8 per group. Quantitative data are expressed as median with min to max values. *P < 0.05, **P < 0.01, ***P < 0.001. […]
ESI source conditions were used as follows: dry gas temperature, 230 °C; nebulizer, 35 psi and flow rate of 14 L min^–1; sheath gas temperature, 400 °C and flow rate of 12 L min^–1; nozzle voltage, 500 V; and capillary voltage, 4000 V. Dynamic multiple reaction monitoring was used as the acquisition mode with a total cycle time of 500 ms. […] Raw LC–MS/MS data were processed applying Agilent Quantitative Analysis software (version B.07.00, MassHunter Agilent Technologies). […]

Aged C57BL/6J mice [6] = experiment: Uphill running; assay type: in vivo, C57BL/6JRj mice; conditions: 1 mg/kg in the food, week 13, trend for improvement
Experimental: Animals were placed on a treadmill at a speed of 15 cm/s in the beginning, then speed was increased by 3 cm/s every 12 min, with an incline of 5°. Mice were taken off the treadmill if they were considered exhausted (5 or more shocks (0.1 mA) per minute for two consecutive minutes) or if the maximum duration of the test was reached (3 h). The maximum running time before exhaustion was recorded and registered as maximum uphill running time.[34]

## COc1cc(C(=O)N2CC[C@H](NC(=O)c3ccccc3OC(F)(F)F)c3c2cnn3C(C)C)cnc1OC [ALT-007]
[1]
  protein aggregates: potent effect in reducing protein aggregates
Aged C57BL/6J mice [2]; after 11 weeks
  lean mass measured by echoMRI: increased lean mass
Aged C57BL/6J mice [2]; at sacrifice after 20 weeks
  muscle weight (gastrocnemius, tibialis anterior): increased muscle weight
[3]
  aqueous solubility: improved
Aged C57BL/6J mice [4]
  grip strength: increased compared to aged control mice
[5]; C2C12 myoblasts, compared to Myriocin
  potency in lowering ceramide species: superior potency compared to Myriocin
[5]; concentration of 10 nM
  ceramide levels in C2C12 myoblasts: lower ceramide levels
Aged C57BL/6J mice [6]
  ability to run uphill (maximum running time): did not significantly improve
